Results: PubChem BioAssay AID1845208 (Molecular Pharmacology Branch, DTP, NCI, 2023)
Several values for one entry are separate records, joined by “and”; a condition that tells them apart may be missing. Equal entries are not always repeated. Activity calls are given as the source filed them. How the source made its calls: active means viability on the fitted dose curve at most 10% of control; inactive means the rest.

Tested on: NCI-H196 SCLC complex tumor spheroid viability
Test: Anticancer human tumor NCI-H196 cell line growth inhibition;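 on IC50: spheroids exposed to compounds for 7 days before readout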;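 on viability, T/C: spheroids exposed to compounds for 7 days before readout; 100% = DMSO vehicle control wells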
Settings: for viability, T/C: stronger effect = lower value
Text: Multicellular complex tumor spheroid response to DNA repair inhibitors in combination with DNA-damaging drugs
This study explores the anticancer activities of DNA-damaging drugs and inhibitors of DNA damage repair, both as single agents and in combinations. Complex tumor spheroids comprised of malignant cells, endothelial cells and mesenchymal stem cells served as an in vitro model for human solid tumors. This model system incorporates physiologically relevant features and patient-derived or established malignant cell lines with clinically relevant genetic alterations from many tumor types. Twenty-six patient-derived or established malignant cell lines were evaluated representing sarcoma, melanoma, small cell lung cancer (SCLC), non-small cell lung cancer (NSCLC), as well as bladder, ovarian and pancreatic cancers. The concentration ranges selected for each drug and investigational agent were based upon clinically achievable concentrations if the clinical Cmax of the agent was known.
Compounds. The drugs and compounds olaparib (NSC753686), talazoparib (NSC767125), berzosertib (NSC777718), elimusertib (NSC800525), nedisertib (NSC802822), VX-984 (NSC792969), AZD-1390 (NSC803789), temozolomide (NSC362856), topotecan (NSC609699), trabectedin (NSC813783), staurosporine (NSC755774), and gemcitabine (NSC613327) were obtained from the National Cancer Institute (NCI) Developmental Therapeutics Program Chemical Repository. The FDA-approved anticancer drug set is available from the Developmental Therapeutics Program at https://dtp.cancer.gov/organization/dscb/obtaining/available_plates.htm. […] The stock solutions were prepared in dimethyl sulfoxide (DMSO, Sigma-Aldrich, St. Louis, MO, cat. D2650) at 400-fold the tested concentration and stored at -70 degrees C. Prior to their use, the stock solutions were diluted in fresh medium and the final DMSO concentration in the assay was 0.25% (v/v). All drugs and investigational agents were tested over a range starting from a high concentration at or near the clinical Cmax and decreasing in half-log increments. If the clinical Cmax for an agent had not been determined, the highest concentration tested was 10 microM.
Cell Lines. The patient-derived cancer cell (PDC) lines: 156681-154-R-J1-PDC, 283228-195-R-J1-PDC, 287954-098-R-J1-PDC, 292921-168-R-J2-PDC, 349418-098-R-PDC, 425362-245-T-J1-PDC, 556581-035-R-J1-PDC, and BL0293-F563-PDC were received from the NCI Patient-Derived Models Repository (PDMR, https://pdmr.cancer.gov). The established cell lines HS-SY-2 (RRID:CVCL_8719), MPNST, and SYO-1 (RRID:CVCL_7146) were obtained from the Sloan Kettering Institute. The alveolar soft parts sarcoma cell line ASPS-1 (RRID:CVCL_S738) was established at the NCI and grown from internal seed stocks. The following established cell lines were purchased from the American Type Culture Collection (ATCC, Manassas, VA): G-401 (ATCC, cat. CRL-1441, RRID:CVCL_0270), SW982 (ATCC, cat. HTB-93, RRID:CVCL_1734), VA-ES-BJ (ATCC, cat. CRL-2138, RRID:CVCL_1785), NCI-H719 (ATCC, cat. CRL-5837, RRID:CVCL_1582), NCI-H196 (ATCC, cat. CRL-5823, RRID:CVCL_1509), NCI-H841 (ATCC, cat. CRL-5845, RRID:CVCL_1595), NCI-H1618 (ATCC, cat. CRL-5879, RRID:CVCL_1480), NCI-H1876 (ATCC, cat. CRL-5902, RRID:CVCL_1503), DMS 114 (ATCC, cat. CRL-2066; RRID:CVCL_1174), NCI-H211 (ATCC, cat. CRL-5824; RRID:CVCL_1529), and SW 1271 (ATCC, cat. CRL-2177, RRID:CVCL_1716). The small cell lung cancer cell line COR-L88 was purchased from Sigma-Aldrich (cat. 92031917-1VL, RRID:CVCL_1141). The non-small cell lung cancer cell lines NCI-H226 (RRID:CVCL_1544) and NCI-H322M (RRID:CVCL_1557) were established at the NCI and grown from internal seed stocks. Pooled donor human umbilical vein endothelial cells (HUVEC, Lonza, cat. CC-2519) and human mesenchymal stem cells (hMSC, Lonza, cat. PT-2501) were purchased from Lonza (Walkersville, MD).
Cell Culture. All cells were maintained in an incubator at 37 degrees C and 5% CO2 with 95% humidity. […]

[1] = compound alone, run of 11/07/2019
[2] = compound alone, run of 12/16/2019

| Structure (SMILES) | viability, T/C (compound 0.0316 µM) | viability, T/C (compound 0.1 µM) | viability, T/C (compound 0.316 µM) | viability, T/C (compound 1 µM) | viability, T/C (compound 3.16 µM) | viability, T/C (compound 10 µM) | IC50 (curve of compound) | viability, T/C (compound 0.00949 µM) | viability, T/C (compound 0.03 µM) | viability, T/C (compound 0.0949 µM) | viability, T/C (compound 0.3 µM) | viability, T/C (compound 0.949 µM) | viability, T/C (compound 3 µM) | other results |
| --- | --- | --- | --- | --- | --- | --- | --- | --- | --- | --- | --- | --- | --- | --- |
| CC(C)n1c(=O)n(C)c2cnc3cc(F)c(-c4ccc(OCCCN5CCCCC5)nc4)cc3c21 | 102% (2×) and 93.8% | 106% and 97.1% and 100% | 105% and 95.7% and 95.9% | 108% and 102% and 105% | 113% and 112% and 110% | 108% and 110% and 111% | > 10 µM | – | – | – | – | – | – | – |
| CC1COCCN1c1cc(-c2ccnn2C)c2ccnc(-c3ccn[nH]3)c2n1 (centres undefined) | 85.4% and 90.9% and 88.6% | 76.7% and 72.3% and 79.4% | 65.1% and 66% and 67.1% | 60.3% and 53.1% and 61.3% | 53% (2×) and 49.1% | 44.3% and 46.2% and 48.6% | 4.36 µM and 2.77 µM and 7.31 µM | – | – | – | – | – | – | – |
| CC[C@@]1(O)C(=O)OCc2c1cc1n(c2=O)Cc2cc3c(CN(C)C)c(O)ccc3nc2-1 | – | – | – | – | – | – | – | 99.5% [middle of 10 runs] | 95.5% [middle of 10 runs] | 102% [middle of 10 runs] | 105% [middle of 10 runs] | – | – | viability, T/C (compound 0.003 µM): 101% [middle of 10 runs]; IC50 [1]: > 0.3 µM; IC50 [2]: > 0.3 µM |
| CNCc1ccc(-c2cc(-c3nc(-c4ccc(S(=O)(=O)C(C)C)cc4)cnc3N)on2)cc1 | – | – | – | – | – | – | > 3 µM | 101% and 97.8% and 106% | 108% and 111% and 109% | 98% and 119% and 105% | 106% and 107% and 101% | 95% and 98.1% and 96.3% | 88.5% and 83.7% and 94% | – |
| COc1cc(C)[nH]c(=O)c1CN1CCc2c(Cl)cc(C(OC)C3COC3)c(Cl)c2C1=O (centres undefined) | 93.9% and 96.1% and 106% | 101% (2×) and 102% | 92.7% and 96% and 91.1% | 101% and 94.2% and 103% | 97.1% and 89.7% and 101% | 94.5% and 97.7% and 100% | > 10 µM | – | – | – | – | – | – | – |
| COc1cc2c(cc1O)CCNC21CSC2c3c(OC(C)=O)c(C)c4c(c3C(COC1=O)N1C(O)C3Cc5cc(C)c(OC)c(O)c5C(C21)N3C)OCO4 (centres undefined) | – | – | – | – | – | – | – | – | – | – | – | – | – | viability, T/C (compound 30 pM): 103% [middle of 10 runs]; viability, T/C (compound 94.9 pM): 105% [middle of 10 runs]; viability, T/C (compound 0.0003 µM): 103% [middle of 10 runs]; viability, T/C (compound 0.000949 µM): 84.7% [middle of 10 runs]; viability, T/C (compound 0.003 µM): 7.79% [middle of 10 runs]; IC50 [2]: 1.62 nM [middle of 8 runs] |
| COc1ccc([C@@H](O)c2cc(-c3ncnc4cc(N5CCOCC5)ccc34)c(F)cc2Cl)nn1 | 96.5% and 98.3% and 102% | 101% and 94.9% and 98.9% | 89.8% and 87.1% and 95.5% | 78.1% and 80.4% | 65% and 69% and 75.8% | 49.7% and 56.2% and 59.8% | > 10 µM | – | – | – | – | – | – | outcome (compound 1 µM): inactive |
| Cc1cc(C)c(CNC(=O)c2cc(-c3ccc(CN4CCOCC4)cc3)cc3c2cnn3C2CCCC2)c(=O)[nH]1 | 104% and 97.2% and 99.1% | 96.1% and 97.9% and 103% | 93.3% and 97% and 102% | 91.3% and 96.2% and 98.9% | 101% and 94% and 103% | 106% and 103% and 111% | > 10 µM | – | – | – | – | – | – | – |
| Cc1sc2c(c1C)C(c1ccc(Cl)cc1)=NC(CC(=O)Nc1ccc(O)cc1)c1nnc(C)n1-2 (centres undefined) | – | – | – | – | – | – | 0.763 µM and 0.77 µM and 0.666 µM | 102% and 106% and 98% | 101% and 108% and 93.3% | 91.3% and 94.5% and 91.4% | 85.1% and 78% and 76.3% | 41.5% and 43.1% and 38.3% | 23% and 23.8% and 20.7% | – |
| Cn1ncnc1[C@H]1c2n[nH]c(=O)c3cc(F)cc(c23)N[C@@H]1c1ccc(F)cc1 | – | – | – | – | – | – | > 3 µM | 108% and 104% and 101% | 102% and 96.7% and 99% | 103% and 98.2% and 102% | 102% and 98.1% and 100% | 104% and 96.5% and 89.3% | 108% and 92% and 87.2% | – |
| Cn1nnc2c(C(N)=O)ncn2c1=O | – | – | – | 95.3% [middle of 10 runs] | 101% [middle of 10 runs] | 104% [middle of 10 runs] | – | – | – | – | – | – | – | viability, T/C (compound 31.6 µM): 107% [middle of 10 runs]; IC50 [1]: > 100 µM |
| O=C(c1cc(Cc2n[nH]c(=O)c3ccccc23)ccc1F)N1CCN(C(=O)C2CC2)CC1 | – | – | – | – | – | – | > 30 µM | – | – | 99.6% and 102% and 108% | 100% and 93.2% and 96% | 90.1% and 99.8% and 99.6% | 98.9% and 93.9% and 98.2% | viability, T/C (compound 9.49 µM): 92.9% and 89.8% and 95.1%; viability, T/C (compound 30 µM): 85.1% (2×) and 69.1% |
| [2H]c1nc(C)nc([2H])c1-c1cc(NC[C@@H](C)c2cccc3c(C(=O)NC)ccnc23)ncn1 | 104% and 105% and 99.6% | 102% and 99.5% and 104% | 98.1% and 106% and 96.8% | 99.2% and 106% and 97.2% | 103% and 99.3% and 102% | 103% and 107% and 104% | > 10 µM | – | – | – | – | – | – | – |
